The test system of data set [1] is PANC1 cell line. The data set can be described thus: MTT anti-proliferative assay, PANC1. In kind it is cell-based, human. The following applies: for IC50: MTT, 48 h exposure, mean ± S.D., 3 separate experiments. As to the method: (§1) 1. Anti-proliferative activity against HepG2 and PANC1 cancer cell lines
(§2) American Type Culture Collection (ATCC). Cells lines were maintained as monolayers in Dulbecco’s Modified Eagle’s Medium (DMEM) supplemented with 10% FBS, 2 mM L-glutamine, 100 U/ml penicillin and 100µg/ml streptomycin sulfate. Cells were sub-cultured with trypsine /EDTA solution, counted with haemocytometer and plated onto 96-well plates (5000 cells/well) and left overnight to form a semi-confluent monolayer. Cell monolayers were treated in quadrates with vehicle (DMSO, 0.1% v/v), and test samples […]
end of exposure, MTT solution in PBS (5 mg/ml) was then added to all well including no cell blank and left to incubate for 90 min. The formation of formazan crystals were visually confirmed using phase contract microscopy. DMSO (100 µl/well) was added to dissolve the formazan crystals with shaking for 10 min after which the absorbance was read at 590 nm against no cell blanks on a FLuo Star Optima microplate reader (BMG technologies, Germany). Cell proliferation was calculated comparing the OD values of the DMSO control wells and those of the samples represented as % proliferation to the control. Dose-response experiment was performed on samples producing > or =50% loss of cell […]
(§3) vehicle control) were calculated using non-linear regression curve fitting of the dose response plots on GraphPad Prism V.6.0 software.
For orientation: Tetrazolium assays rely on reduction of a dye to a coloured formazan, in cell work by metabolically active cells.

Data set [2] has as its system HepG2 cell line. The data set can be described thus: MTT anti-proliferative assay, HepG2. The conditions noted are these: mean ± S.D., 3 separate experiments. In kind it is cell-based, human. As to the method:
as §1, §2
end of exposure, MTT solution in PBS (5 mg/ml) was then added to all well including no cell blank and left to incubate for 90 min. The formation of formazan crystals were visually confirmed using phase contract microscopy. DMSO (100 µl/well) was added to dissolve the formazan crystals with shaking for 10 min after which the absorbance was read at 590 nm against no cell blanks on a FLuo Star Optima microplate reader (BMG technologies, Germany). Cell proliferation was calculated comparing the OD values of the DMSO control wells and those of the samples represented as % proliferation to the control. Dose-response experiment was performed on samples producing > or =50% loss of cell proliferation using five serial 2-fold dilutions (50, 25, 12.5, 6.25 and 3.125 µM) of the […]
as §3

In data set [3] the target is T1, VEGFR-2 (Homo sapiens, UniProt P35968). Also noted: purchased BPS Bioscience 40325; method as in doi:10.1016/j.molstruc.2021.131832. The conditions noted are these: cited from earlier work.
T1 sequence (P35968 20-1356): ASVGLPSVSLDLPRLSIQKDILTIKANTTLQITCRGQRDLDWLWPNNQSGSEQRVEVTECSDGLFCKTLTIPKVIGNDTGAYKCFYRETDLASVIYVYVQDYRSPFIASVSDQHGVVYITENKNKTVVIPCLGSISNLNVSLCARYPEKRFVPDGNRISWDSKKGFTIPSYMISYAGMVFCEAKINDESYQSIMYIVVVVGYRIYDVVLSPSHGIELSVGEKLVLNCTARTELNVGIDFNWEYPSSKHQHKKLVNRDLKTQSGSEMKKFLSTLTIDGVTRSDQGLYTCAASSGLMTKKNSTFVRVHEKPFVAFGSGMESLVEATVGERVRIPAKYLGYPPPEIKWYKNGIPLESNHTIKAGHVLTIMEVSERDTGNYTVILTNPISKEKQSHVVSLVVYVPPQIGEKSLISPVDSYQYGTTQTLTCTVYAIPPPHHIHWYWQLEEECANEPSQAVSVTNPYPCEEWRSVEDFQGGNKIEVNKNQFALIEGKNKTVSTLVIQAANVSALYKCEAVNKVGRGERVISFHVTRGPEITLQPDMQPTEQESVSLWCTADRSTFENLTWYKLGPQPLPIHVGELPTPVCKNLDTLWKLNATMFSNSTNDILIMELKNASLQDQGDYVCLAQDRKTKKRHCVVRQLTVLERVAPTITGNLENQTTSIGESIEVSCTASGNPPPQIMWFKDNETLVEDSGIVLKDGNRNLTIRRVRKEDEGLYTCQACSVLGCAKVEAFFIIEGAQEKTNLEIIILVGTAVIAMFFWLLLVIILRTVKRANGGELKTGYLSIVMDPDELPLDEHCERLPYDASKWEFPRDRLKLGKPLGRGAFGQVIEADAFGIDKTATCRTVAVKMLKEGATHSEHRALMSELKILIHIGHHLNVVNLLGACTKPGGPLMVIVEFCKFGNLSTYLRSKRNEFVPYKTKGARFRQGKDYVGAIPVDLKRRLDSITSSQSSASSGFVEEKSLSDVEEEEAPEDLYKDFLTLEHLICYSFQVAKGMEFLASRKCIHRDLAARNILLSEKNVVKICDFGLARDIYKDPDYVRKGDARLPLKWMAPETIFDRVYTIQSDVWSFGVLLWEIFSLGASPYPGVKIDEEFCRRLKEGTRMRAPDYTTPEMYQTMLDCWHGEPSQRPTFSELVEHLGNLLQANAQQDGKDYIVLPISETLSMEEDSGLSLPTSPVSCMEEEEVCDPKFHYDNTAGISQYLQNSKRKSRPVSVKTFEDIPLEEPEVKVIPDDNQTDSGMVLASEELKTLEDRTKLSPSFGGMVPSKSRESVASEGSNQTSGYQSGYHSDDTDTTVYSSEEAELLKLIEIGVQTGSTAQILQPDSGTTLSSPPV
For data set [4], the system named is HepG2. Also noted: method as in doi:10.1016/j.molstruc.2021.131832. The following applies: hepatocellular cell line HepG2; cited from earlier work.
The nature of data set [5]: Cytotoxicity against non-tumorigenic Vero cell line. Format: cell-based. The following applies: African green monkey, Vero cells (non-tumorigenic), read-out: IC50 Vero (cytotoxic activity).
In data set [6] the target is T1, VEGFR-2. The data set can be described thus: VEGFR-2 Kinase Assay Kit (BPS Bioscience).
Procedure: (§4) In brief, the master mixture was produced (25 μL per well) and poured into
(§5) each well. Each well received 5 μL of inhibitor solution designated as "Test Inhibitor". The "Positive Control" and "Blank" groups received 5 μL of the same solution without the
(§6) inhibitor (Inhibitor buffer). In order to prepare 3 mL of kinase buffer, 600 μL of kinase
(§7) buffer were combined with 2400 μL of water. The blank wells received 20 μL of kinase
(§8) buffer. The amount of VEGFR-2 required for the test was measured and the enzyme was
(§9) diluted to 1 ng/ μL with kinase buffer. 20 μL of diluted VEGFR-2 enzymes was added to
(§10) the wells designated as "Test Inhibitor Control” and “Positive Control” to start the reaction
(§11) and the mixtures were incubated at 30 °C for 45 minutes. After the 45 minutes, each well received 50 μL of KinaseGlo Max reagent and the plate was incubated at room temperature
(§12) for 15 minutes. The luminescence was measured with a microplate reader.
Data set [7] relates to Vero cell line. The data set can be described thus: Cytotoxicity against non-tumorigenic Vero cell line. In kind it is cell-based. The conditions noted are these: read-out: IC50 Vero (cytotoxic activity).
Data set [8] has as its target T1, VEGFR-2. The data set can be described thus: biochemical.
Procedure: as §4, §5, §6, §7, §8, §9, §10, §11, §12
In data set [9] the target is T1, VEGFR-2. Also noted: purchased BPS Bioscience 40325; method as in PMID 35217379. The following applies: cited from earlier work.
Setting [10] is: Homo sapiens, HepG2, 48 h exposure.

Structures are written as SMILES. Read-outs that look alike come from different tables or passages of the source. Where only a bound is given, the exact number is not on record here.

One may read the melting point as the temperature, or range, at which the solid turns liquid. A word on the IC50: it is the concentration at which inhibition is half-maximal.

As to `CC(=O)Nc1ccc(-c2nc(C(=O)NN=C3C(=O)Nc4ccc(F)cc43)nn2-c2ccc(Cl)cc2)cc1` [11h, N-{4-[1-(4-Chlorophenyl)-3-{N′-[5-fluoro-2-oxo-2,3-dihydro-1H-indol-3-ylidene]hydrazinecarbonyl}-1H-1,2,4-triazol-5-yl]phenyl}acetamide], the melting point was above 300 °C. The same compound showed an IC50 in data set [1] (Homo sapiens, PANC-1) of 220 ± 10 nM. Besides, the “fold improvement of efficacy against PANC1 compared to 11b” value in data set [1] (versus fluorinated-phenyl counterpart 11b) stood at 8 fold. The same compound gave an IC50 in data set [2] (setting [10]) of 1270 ± 40 nM.
`CCOC(=O)/C(=N\Nc1ccc(Cl)cc1)Sc1nnc(C(F)(F)F)n1/N=C/c1ccc(OC)cc1` [II]: the IC50 in data set [3] is 74 nM; in data set [4], 10 µM.
Take `CC(=O)Nc1ccc(-c2nc(C(=O)NN=C3C(=O)Nc4ccc(Cl)cc43)nn2-c2ccc(Cl)cc2)cc1` [11i, N-[4-(3-{N′-[5-Chloro-2-oxo-2,3-dihydro-1H-indol-3-ylidene]hydrazinecarbonyl}-1-(4-chlorophenyl)-1H-1,2,4-triazol-5-yl)phenyl]acetamide]: the IC50 in data set [1] (Homo sapiens, PANC-1) turned out to be 3750 ± 90 nM; in [2] (setting [10]), 4490 ± 150 nM.
On the same counts, the results for `CC(=O)Nc1ccc(-c2nc(C(=O)NN=C3C(=O)N(Cc4ccccc4)c4ccc(Br)cc43)nn2-c2ccc(F)cc2)cc1` [14b, N-[4-(3-{N′-[1-Benzyl-5-bromo-2-oxo-2,3-dihydro-1H-indol-3-ylidene]hydrazinecarbonyl}-1-(4-fluorophenyl)-1H-1,2,4-triazol-5-yl)phenyl]acetamide] are 760 ± 40 nM and 980 nM.
On the same counts, the results for `CC(=O)Nc1ccc(-c2nc(C(=O)NN=C3C(=O)Nc4ccc([N+](=O)[O-])cc43)nn2-c2ccc(F)cc2)cc1` [11f, N-{4-[1-(4-Fluorophenyl)-3-{N′-[5-nitro-2-oxo-2,3-dihydro-1H-indol-3-ylidene]hydrazinecarbonyl}-1H-1,2,4-triazol-5-yl]phenyl}acetamide] are 230 ± 10 nM and 2410 ± 40 nM.
`CC(=O)Nc1ccc(-c2nc(C(=O)NN=C3C(=O)Nc4ccc(F)cc43)nn2-c2ccc(F)cc2)cc1` [11b, N-[4-(3-{N′-[5-Fluoro-2-oxo-2,3-dihydro-1H-indol-3-ylidene]hydrazinecarbonyl}-1-(4-fluorophenyl)-1H-1,2,4-triazol-5-yl)phenyl]acetamide]: the IC50 was determined as 1740 ± 20 nM in data set [1] (Homo sapiens, PANC-1) and 1170 ± 30 nM in data set [2] (setting [10]).
For `CC(=O)Nc1ccc(-c2nc(C(=O)NN=C3C(=O)N(C)c4ccccc43)nn2-c2ccc(Cl)cc2)cc1` [14c, N-{4-[1-(4-Chlorophenyl)-3-{N′-[1-methyl-2-oxo-2,3-dihydro-1H-indol-3-ylidene]hydrazinecarbonyl}-1H-1,2,4-triazol-5-yl]phenyl}acetamide], the IC50 in data set [5] was 7.92 ± 0.48 µM; in data set [1] (Homo sapiens, PANC-1) it was 200 nM; in data set [2] (setting [10]) it was 580 ± 10 nM.
`CC(=O)Nc1ccc(-c2nc(C(=O)NN=C3C(=O)Nc4ccc(Br)cc43)nn2-c2ccc(F)cc2)cc1` [11d, N-[4-(3-{N′-[5-Bromo-2-oxo-2,3-dihydro-1H-indol-3-ylidene]hydrazinecarbonyl}-1-(4-fluorophenyl)-1H-1,2,4-triazol-5-yl)phenyl]acetamide]: in data set [6] (5-Br versus 5-OCH3 (11e)), the “fold enhancement of efficacy against VEGFR-2 compared to 11e” value is on record as “approximately 3 fold”. The IC50 in data set [7] worked out at 8.35 ± 0.62 µM; in data set [5], 11.7 ± 0.93 µM; in data set [1] (Homo sapiens, PANC-1) it was 1160 ± 20 nM; in [2] (setting [10]) it was 730 ± 20 nM; in data set [8], 16.3 ± 0.42 nM.
Take `CC(=O)Nc1ccc(-c2nc(C(=O)NN=C3C(=O)N(Cc4ccccc4)c4ccc(Br)cc43)nn2-c2ccc(Cl)cc2)cc1` [14d, N-[4-(3-{N′-[1-Benzyl-5-bromo-2-oxo-2,3-dihydro-1H-indol-3-ylidene]hydrazinecarbonyl}-1-(4-chlorophenyl)-1H-1,2,4-triazol-5-yl)phenyl]acetamide]: the IC50 in data set [1] (Homo sapiens, PANC-1) is 420 ± 10 nM; in [2] (setting [10]), 920 ± 20 nM.
Regarding `CC(=O)Nc1ccc(-c2nc(C(=O)NN=C3C(=O)Nc4ccc(Br)cc43)nn2-c2ccc(Cl)cc2)cc1` [11j, N-[4-(3-{N′-[5-Bromo-2-oxo-2,3-dihydro-1H-indol-3-ylidene]hydrazinecarbonyl}-1-(4-chlorophenyl)-1H-1,2,4-triazol-5-yl)phenyl]acetamide], the IC50 in [1] (Homo sapiens, PANC-1) amounted to 1680 ± 60 nM; in data set [2] (setting [10]), 1010 ± 20 nM.
On the same counts, the results for `CC(=O)Nc1ccc(-c2nc(C(=O)NN=C3C(=O)N(C)c4ccccc43)nn2-c2ccc(F)cc2)cc1` [14a, N-{4-[1-(4-Fluorophenyl)-3-{N′-[1-methyl-2-oxo-2,3-dihydro-1H-indol-3-ylidene]hydrazinecarbonyl}-1H-1,2,4-triazol-5-yl]phenyl}acetamide] are 4050 ± 100 nM and 1630 ± 20 nM.
Turning to `COc1ccc2c(c1)C(=NNC(=O)c1nc(-c3ccc(NC(C)=O)cc3)n(-c3ccc(Cl)cc3)n1)C(=O)N2` [11k, N-{4-[1-(4-Chlorophenyl)-3-{N′-[5-methoxy-2-oxo-2,3-dihydro-1H-indol-3-ylidene]hydrazinecarbonyl}-1H-1,2,4-triazol-5-yl]phenyl}acetamide], the “times increase of VEGFR-2 activity compared to 11g” value in [6] (versus unsubstituted indolin-2-one 11g) was “approximately 3 times”. Moreover, the IC50 in data set [5] was 13.2 ± 1.09 µM; in [1] (Homo sapiens, PANC-1) it was 1780 ± 40 nM; in data set [2] (setting [10]), 730 ± 10 nM; in data set [8], 41.3 ± 0.31 nM.
Regarding `CC(=O)Nc1ccc(-c2nc(C(=O)NN=C3C(=O)Nc4ccccc43)nn2-c2ccc(Cl)cc2)cc1` [11g, N-{4-[1-(4-Chlorophenyl)-3-{N′-[2-oxo-2,3-dihydro-1H-indol-3-ylidene]hydrazinecarbonyl}-1H-1,2,4-triazol-5-yl]phenyl}acetamide], the IC50 in data set [5] worked out at 10.7 ± 0.71 µM; in data set [1] (Homo sapiens, PANC-1), 770 ± 20 nM; in [2] (setting [10]), 710 ± 10 nM.
Regarding `Cc1ccc(NC(=O)CSc2nnc(Cn3c(=O)c(C)nc4ccccc43)n2C)cc1` [I], in data set [9], the IC50 is 60 nM.
Consider `CC(=O)Nc1ccc(-c2nc(C(=O)NN=C3C(=O)Nc4ccc([N+](=O)[O-])cc43)nn2-c2ccc(Cl)cc2)cc1` [11l, N-{4-[1-(4-Chlorophenyl)-3-{N′-[5-nitro-2-oxo-2,3-dihydro-1H-indol-3-ylidene]hydrazinecarbonyl}-1H-1,2,4-triazol-5-yl]phenyl}acetamide], for which the IC50 in data set [1] (Homo sapiens, PANC-1) is 170 ± 10 nM; in data set [2] (setting [10]) it was 1730 ± 60 nM.
On the same counts, the results for `CC(=O)Nc1ccc(-c2nc(C(=O)NN=C3C(=O)Nc4ccc(Cl)cc43)nn2-c2ccc(F)cc2)cc1` [11c, N-[4-(3-{N′-[5-Chloro-2-oxo-2,3-dihydro-1H-indol-3-ylidene]hydrazinecarbonyl}-1-(4-fluorophenyl)-1H-1,2,4-triazol-5-yl)phenyl]acetamide] are 980 ± 60 nM and 2210 ± 30 nM.
Consider `COc1cccc2c1C(=O)c1c(O)c3c(c(O)c1C2=O)C[C@@](O)(C(=O)CO)C[C@@H]3O[C@H]1C[C@H](N)[C@H](O)[C@H](C)O1` [Dox., reference compound], for which the IC50 stood at 190 ± 10 nM in [1] and 430 ± 20 nM in data set [2] (48 h exposure).
Take `COc1ccc2c(c1)C(=NNC(=O)c1nc(-c3ccc(NC(C)=O)cc3)n(-c3ccc(F)cc3)n1)C(=O)N2` [11e, N-{4-[1-(4-Fluorophenyl)-3-{N′-[5-methoxy-2-oxo-2,3-dihydro-1H-indol-3-ylidene]hydrazinecarbonyl}-1H-1,2,4-triazol-5-yl]phenyl}acetamide]: the IC50 in [7] is 11.7 ± 0.93 µM; in [5], 8.35 ± 0.62 µM; in data set [1] (Homo sapiens, PANC-1), 2220 ± 70 nM; in data set [2] (setting [10]), 760 ± 20 nM; in data set [8], 48.4 ± 0.39 nM.
Consider `CC(=O)Nc1ccc(-c2nc(C(=O)NN=C3C(=O)Nc4ccccc43)nn2-c2ccc(F)cc2)cc1` [11a, N-{4-[1-(4-Fluorophenyl)-3-{N′-[2-oxo-2,3-dihydro-1H-indol-3-ylidene]hydrazinecarbonyl}-1H-1,2,4-triazol-5-yl]phenyl}acetamide], for which the IC50 was 4290 ± 100 nM in [1] (Homo sapiens, PANC-1) and 2060 ± 30 nM in data set [2] (setting [10]).

The values above are taken from paper PMC10820444, “1,2,4-Triazole-Tethered Indolinones as New Cancer-Fighting Small Molecules Targeting VEGFR-2: Synthesis, Biological Evaluations and Molecular Docking” (Pharmaceuticals, 2024).
